Test results taken from patent publication US8598314B2 (priority 2007, dated 2013).
pIC50: −log10 of the molar value. Like-named read-outs stand apart in the source and are kept apart here. Values belong to the compound of their own block, whether it stands above or below them. *1 amine or outer side, *2 acyl side, *3 side chain or, on linkers, in order; H or OH if unused. Where no end group is shown, it is not given here. Side-chain parts run from the residue outwards. [ ]: non-standard residue; d: D form. The star is where a group is joined. γGlu = O=C(O)[C@H](CCC(=O)[*:2])N[*:1]; Pyrrolidine(2S-CN) = N#C[C@@H]1CCCN1*; NMeY = CN[C@@H](Cc1ccc(O)cc1)C(=O)O; AEEA = NCCOCCOCC(=O)O

Tests used:
ACE from rabbit lung = target: T1, ACE from rabbit lung (Oryctolagus cuniculus, UniProt P12822); assay: ACE inhibition assay; type: biochemical
T1 construct: ACE from rabbit lung; purchased Sigma Chemical Co; host or cells: rabbit lung tissue
T1 sequence (P12822 34-1310): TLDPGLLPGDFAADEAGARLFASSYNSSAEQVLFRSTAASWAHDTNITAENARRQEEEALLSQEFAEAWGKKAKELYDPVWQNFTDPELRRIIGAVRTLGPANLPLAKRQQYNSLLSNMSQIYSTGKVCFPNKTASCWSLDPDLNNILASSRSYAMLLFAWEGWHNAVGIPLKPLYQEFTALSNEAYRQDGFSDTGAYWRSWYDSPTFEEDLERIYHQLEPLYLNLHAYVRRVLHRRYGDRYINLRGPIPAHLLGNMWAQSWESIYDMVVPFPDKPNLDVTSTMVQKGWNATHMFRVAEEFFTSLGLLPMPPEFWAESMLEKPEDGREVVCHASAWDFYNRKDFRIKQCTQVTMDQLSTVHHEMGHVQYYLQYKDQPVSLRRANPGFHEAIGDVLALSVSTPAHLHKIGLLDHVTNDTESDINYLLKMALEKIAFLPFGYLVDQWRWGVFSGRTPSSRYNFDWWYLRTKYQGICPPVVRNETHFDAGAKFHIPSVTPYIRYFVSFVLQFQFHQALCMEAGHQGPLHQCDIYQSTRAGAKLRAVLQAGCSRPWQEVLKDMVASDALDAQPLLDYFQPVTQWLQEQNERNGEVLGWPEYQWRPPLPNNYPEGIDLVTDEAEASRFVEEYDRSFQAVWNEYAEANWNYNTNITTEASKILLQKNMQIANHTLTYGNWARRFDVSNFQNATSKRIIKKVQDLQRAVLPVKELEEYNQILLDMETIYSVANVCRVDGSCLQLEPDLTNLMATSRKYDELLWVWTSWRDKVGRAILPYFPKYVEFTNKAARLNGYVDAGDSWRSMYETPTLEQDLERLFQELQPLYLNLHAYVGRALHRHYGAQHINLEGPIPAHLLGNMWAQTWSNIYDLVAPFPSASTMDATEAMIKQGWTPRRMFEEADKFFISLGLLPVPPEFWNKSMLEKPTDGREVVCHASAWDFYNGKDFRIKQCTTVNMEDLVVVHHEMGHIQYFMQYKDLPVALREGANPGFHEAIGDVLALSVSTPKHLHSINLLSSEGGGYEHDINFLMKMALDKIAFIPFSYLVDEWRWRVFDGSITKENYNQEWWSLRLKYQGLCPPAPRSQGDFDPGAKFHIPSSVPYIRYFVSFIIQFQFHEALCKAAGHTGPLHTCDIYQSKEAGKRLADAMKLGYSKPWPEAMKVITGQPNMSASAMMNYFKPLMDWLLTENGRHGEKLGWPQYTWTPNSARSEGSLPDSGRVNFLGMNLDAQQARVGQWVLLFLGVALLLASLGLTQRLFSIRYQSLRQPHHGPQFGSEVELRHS
Method: Peptide-ACE peptidase inhibitor conjugate compounds were assessed in an ACE inhibition assay using purified ACE enzyme and chromogenic substrates. An ACE stock solution was prepared by dissolving 0.1 unit of enzyme (ACE from rabbit lung, Sigma Chemical Co., St. Louis, Mo.) in 0.640 mL of HEPES buffer (0.1 M, pH=8). A 2 mM stock solution of substrate (N-benzyloxycarbonyl-Phe-His-Leu-OH) dissolved in methanol. The ACE inhibitor compounds were dissolved in phosphate buffer (0.1 M, pH=8) at concentrations of 0.0, 1, 10, 20, 60 and 100 μM. For the inhibition assay, six 2 mL microcentrifuge tubes were prepared containing 1.45 mL of phosphate buffer pH=8, 0.05 mL of 10% NaCl and 0.015 mL of substrate solution. To each microcentrifuge tube was added 0.015 mL of one of the ACE inhibitor compound's stock solutions. The solutions were heated at 37° C. for about 5 minutes. The reaction was started by the addition of 5 μL of the ACE stock solution to each tube mixture (30 seconds in between). The reaction mixtures were incubated at 37° C. After 5 min, 10 min, 30 min and 60 min., aliquots of 100 μL were taken from each tube (each sample was taken in intervals of 30 seconds). Tubes containing the 100 μL sample were floated in a boiling water bath for 5 min. and then cooled. The reaction samples were then treated with 20 μL of 2M NaOH and 20 μL of 0.1% phthaldialdehyde solution. The tubes were shaken for 4 minutes and 10 μL of 6 M HCl were added. […] Initial rates were determined from linear portions of product release curves. Starting substrate concentration in all assays was 20 μM. Apparent binding constants (Kd^app or Ki^app) of inhibitors to ACE were determined by fitting inhibition curves (initial rate vs. inhibitor concentration) to equation:
[formula] where v0 is reaction rate in the absence of inhibitor and [I]-inhibitor concentration. Fits were done by least-squares method using KaleidaGraph 3.6 (Synergy Software, Reading Pa.).

plasma carboxypeptidase = assay: Carboxypeptidase activity assay, PYY(3-36) in human plasma; type: biochemical; conditions: for inhibition of plasma carboxypeptidase activity (in words): protease inhibitor at a final concentration of 1 mM; for inhibition of the formation of PYY(3-35) (in words): 0.5 mM in human plasma, FIGS. 10-12
Method: Carboxypeptidase activity assays were performed in the presence of various agents to test for carboxypeptidase inhibitor activity of the agents.
The remainder of the sample was placed in an incubator at 37° C., mixing at 600 RPM for sixty minutes. At 10 minute intervals, a 100 μl sample of the mixture was removed and transferred to a separate microcentrifuge tubes. Following the transfer of the 100 μL sample at the zero time point and each 10 minute interval, each collected sample was extracted by slow addition of 100 μl cold 0.2% formic acid:acetonitrile, while mixing. After addition of the acetonitrile solution, the sample was vortex mixed at high speed for 15 seconds. The extracted samples were stored at −20° C. for at least 20 minutes and then centrifuged at 11,000×g for 10 minutes at 5° C. The supernatant of each sample was transferred to a new microcentrifuge tube, centrifuged again, and finally transferred for LC/MS analysis. The MS analysis was a Q1 single ion monitoring method that detects the most intense ion of the parent molecule and the peptide fragment of interest.

NIH/Swiss mice = assay: Oral glucose tolerance test (OGTT), glucose lowering; type: in vivo; conditions: 30 nM/kg, blood glucose
Method: . Test compounds were injected IP (t=0 min) immediately following baseline measurements of 2 hour fasted NIH/Swiss mice. Blood samples were taken at 60, 120, and 180 minutes after injection. In some assays, samples were also taken at 240 minutes after the injection. Blood glucose was measured with a One-Touch® Ultra® glucose meter (LifeScan, Inc., Milpitas, Calif.). […].
The tests were performed as described in Example 5.

Compound: CC[C@H](C)[C@H](NC(=O)[C@H](Cc1ccccc1)NC(=O)[C@H](CC(C)C)NC(=O)[C@H](CCCNC(=N)N)NC(=O)[C@@H](NC(=O)[C@H](C)NC(=O)[C@H](CCC(=O)O)NC(=O)[C@H](CCC(=O)O)NC(=O)[C@H](CCC(=O)O)NC(=O)[C@H](CC(C)C)NC(=O)[C@H](CCC(N)=O)NC(=O)[C@H](CCCCN)NC(=O)[C@H](CO)NC(=O)[C@H](CC(C)C)NC(=O)[C@H](CC(=O)O)NC(=O)[C@H](CO)NC(=O)[C@@H](NC(=O)[C@H](Cc1ccccc1)NC(=O)[C@@H](NC(=O)CNC(=O)[C@H](CCC(=O)O)NC(=O)CNC(=O)[C@@H](N)Cc1c[nH]cn1)[C@@H](C)O)[C@@H](C)O)C(C)C)C(=O)N[C@@H](CCC(=O)O)C(=O)N[C@@H](Cc1ccccc1)C(=O)N[C@@H](CC(C)C)C(=O)N[C@@H](CCCCN)C(=O)N[C@@H](CC(N)=O)C(=O)NCC(=O)NCC(=O)NCCCC[C@H](NC(CCc1ccccc1)C(=O)O)C(=O)N1CCCC1C(=O)O (stereo partly drawn) [3633/42/1, [^14Leu,^25Phe]Exendin-4(1-28)-Gly-Gly-CONH-Lisinopril diacid]
pIC50 (ACE from rabbit lung): 5.82

Compound: NCCc1ccc(S(=O)(=O)F)cc1 [AEBSF, 4-(2-aminoethyl)-bezenesulfonylfluoride, reference compound]
inhibition of plasma carboxypeptidase activity (in words) (plasma carboxypeptidase): inhibited

pIC50 (ACE from rabbit lung; substrate N-benzyloxycarbonyl-Phe-His-Leu-OH 20 μM, read-out: ACE inhibition IC50): 6.15
Compound: CC[C@H](C)[C@H](NC(=O)[C@H](CC(C)C)NC(=O)[C@H](Cc1c[nH]c2ccccc12)NC(=O)[C@H](CC(=O)O)NC(=O)[C@@H](NC(=O)[C@H](Cc1ccccc1)NC(=O)[C@H](CCC(=O)O)NC(=O)[C@H](CCCCN)NC(=O)[C@H](C)NC(=O)[C@H](C)NC(=O)[C@H](CCCCN)NC(=O)[C@H](CCC(=O)O)NC(=O)[C@H](CC(=O)O)NC(=O)[C@H](CC(C)C)NC(=O)[C@H](CCC(N)=O)NC(=O)[C@H](CCC(N)=O)NC(=O)[C@@H](NC(=O)[C@@H](NC(=O)[C@H](CC(=O)O)NC(=O)[C@H](CO)NC(=O)[C@@H](NC(=O)[C@H](Cc1ccccc1)NC(=O)[C@@H](NC(=O)CNC(=O)[C@H](CCC(=O)O)NC(=O)[C@H](C)NC(=O)[C@@H](N)Cc1c[nH]cn1)[C@@H](C)O)[C@@H](C)O)C(C)C)[C@@H](C)O)[C@@H](C)CC)C(=O)N[C@@H](CC(N)=O)C(=O)NCC(=O)NCC(=O)N1CCC[C@H]1C(=O)N[C@@H](CO)C(=O)N[C@@H](CCCCN)C(=O)N[C@@H](CCC(=O)O)C(=O)N[C@H](C(=O)N[C@H](C(=O)N[C@@H](CO)C(=O)NCCOCCOCCOCC(=O)NCCOCCOCC(=O)NCCCC[C@H](NC(CCc1ccccc1)C(=O)O)C(=O)N1CCC[C@H]1C(=O)O)[C@@H](C)CC)[C@@H](C)CC (stereo partly drawn) [Compound 5713]

inhibition of plasma carboxypeptidase activity (in words) (plasma carboxypeptidase): not
Compound: O=C(O)CN(CCN(CC(=O)O)CC(=O)O)CC(=O)O [EDTA, reference compound]

Compound: NCCCC[C@H](N[C@@H](CCc1ccccc1)C(=O)O)C(=O)N1CCC[C@H]1C(=O)O [Lisinopril, reference compound]
pIC50 (ACE from rabbit lung; commercial lisinopril, read-out: ACE inhibition IC50): 8.89
pIC50 (ACE from rabbit lung; synthesized lisinopril, read-out: ACE inhibition IC50): 8.55

Compound: CNC(Cc1ccc(O)cc1)C(N)=O (stereo not drawn) [N-methyl-Tyr-NH2]
inhibition of the formation of PYY(3-35) (in words) (plasma carboxypeptidase): did not inhibit

inhibition of plasma carboxypeptidase activity (in words) (plasma carboxypeptidase): not
Compound: CC(C)C[C@H](NP(=O)(O)O[C@@H]1O[C@@H](C)[C@H](O)[C@@H](O)[C@H]1O)C(=O)N[C@@H](Cc1c[nH]c2ccccc12)C(=O)O [phosphoramidon, reference compound]

Compound: GIP(1-30)-Ado-Ado-Lys-N-ε-(2-(S)-cyano pyrrolidyl)
OGTT (30 nM/kg) % maximal decrease (NIH/Swiss mice): −17%

Compound: GIP(1-30)-Ado-Lys-N-ε-(2-(S)-cyano pyrrolidyl) (YAEGTFISDYSIAMDKIHQQDFVNWLLAQK)
OGTT (30 nM/kg) % maximal decrease (NIH/Swiss mice): −18%

Compound: GIP(1-30)-exendin-4(31-39)-Ado-Ado-Lys-N-ε-(2-(S)-cyano pyrrolidyl)
OGTT (30 nM/kg) % maximal decrease (NIH/Swiss mice): −22%

Compound: GIP(1-30)-exendin-4(31-39)-Ado-Lys-N-ε-(2-(S)-cyano pyrrolidyl)
OGTT (30 nM/kg) % maximal decrease (NIH/Swiss mice): −18%

Compound: Lys^30 N-ε-(Ado-(γ-L-Glu-2-(S)-cyano pyrrolidyl)) GIP(1-30)-exendin-4(31-39)
OGTT (30 nM/kg) % maximal decrease (NIH/Swiss mice): −11%

Compound: [Lys^30 N-ε-(Ado-(γ-L-Glu-2-(S)-cyano pyrrolidyl))]GIP(1-30) (YAEGTFISDYSIAMDKIHQQDFVNWLLAQK([AEEA-γGlu-Pyrrolidine(2S-CN)]))
OGTT (30 nM/kg) % maximal decrease (NIH/Swiss mice): −10%

Compound: [^14Leu] GIP(1-30)-Ado-Lys-N-ε-(2-(S)-cyano pyrrolidyl) (YAEGTFISDYSIALDKIHQQDFVNWLLAQK)
OGTT (30 nM/kg) % maximal decrease (NIH/Swiss mice): −9%

Compound: [^16Lys (N-ε-(Aun-Aun-(γ-L-Glu-2-(S)-cyano pyrrolidyl)))] GIP(1-30)-exendin(31-39)
OGTT (30 nM/kg) % maximal decrease (NIH/Swiss mice): −3%

Compound: ^36N-methyl-Tyr-amide-PYY(22-36) (ASLRHYLNLVTRQR[NMeY]-NH2; N-terminus assumed; SMILES CC(C)C[C@H](NC(=O)[C@H](CO)NC(=O)[C@H](C)N)C(=O)N[C@@H](CCCNC(=N)N)C(=O)N[C@@H](Cc1c[nH]cn1)C(=O)N[C@@H](Cc1ccc(O)cc1)C(=O)N[C@@H](CC(C)C)C(=O)N[C@@H](CC(N)=O)C(=O)N[C@@H](CC(C)C)C(=O)N[C@H](C(=O)N[C@H](C(=O)N[C@@H](CCCNC(=N)N)C(=O)N[C@@H](CCC(N)=O)C(=O)N[C@@H](CCCNC(=N)N)C(=O)N(C)[C@@H](Cc1ccc(O)cc1)C(N)=O)[C@@H](C)O)C(C)C) [N-terminal truncation of 36N-methyl-Tyr-amide-PYY(3-36)]
inhibition of the formation of PYY(3-35) (in words) (plasma carboxypeptidase): measurable but lower activity

Compound: ^36N-methyl-Tyr-amide-PYY(34-36) (Gln-Arg-[NMeY]-NH2; N-terminus assumed; SMILES CN(C(=O)[C@H](CCCNC(=N)N)NC(=O)[C@@H](N)CCC(N)=O)[C@@H](Cc1ccc(O)cc1)C(N)=O) [N-terminal truncation of 36N-methyl-Tyr-amide-PYY(3-36)]
inhibition of the formation of PYY(3-35) (in words) (plasma carboxypeptidase): did not inhibit
